The record followed here is US7812022B2 (GlaxoSmithKline LLC, priority 2004, dated 2010).

Usually IC50 stands for the concentration at which inhibition is half-maximal.

Assay [1] deals with BT474 and HN5 tumor cell lines. The assay is described as follows: Methylene blue growth inhibition assay (cellular Method A). It counts as cell-based, Human. The following applies: 3 days, read-out: Activity (Method): growth inhibition IC50 class. An outline of the steps:
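Colo205, BT474 and HN5 cells in DMEM/10% FBS (BT474 10,000, HN5 3,000 cells/well) treated next day with compound in DMEM, 0.3% final DMSO, for 3 days at 37° C. Biomass stained with methylene blue, solubilized, read at OD 620; IC50 interpolated by nonlinear regression from % inhibition versus vehicle.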

Assay [2] has as its target T1, ErbB2 or EGFR.
T1 construct: enzymes purified from a baculovirus expression system; Reagent production was conducted essentially as described in Brignola, P. S., et al, (2002) J. Biol. Chem. 277(2): 1576-1585
The assay is described as follows: ErbB family substrate phosphorylation enzyme assay (HTRF), Method A or Method B. It counts as biochemical. In outline: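 Baculovirus-expressed EGFR or ErbB2 (0.8 or 10 nM in enzyme mix) phosphorylates biotinylated Peptide C with 20 µM ATP and 0.8 µM peptide (substrate-mix levels), MnCl2, pH 7.5. Reaction ran 90 min at 20 °C with EDTA stop and HTRF anti-phosphotyrosine read. Method A: enzyme added last; Method B: 1 h enzyme–compound preincubation.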
(In TR-FRET formats the signal depends on donor and acceptor labels being close together.)

[3] abbreviates: Method B: enzyme mix pre-incubated with compound 1 hour at 20° C., started with substrate mix.
The mark [4] stands for this setting: Method A: substrate mix added first, reaction started with enzyme mix.

Where two headings read alike, the source gives them in different places. Bounds are passed on as bounds.

As to `Cn1cccc1C(=O)Nc1cccc(-c2nn3ccccc3c2-c2ccnc(Nc3cccc(F)c3)n2)c1` [Example 82, N-[3-(3-{2-[(3-fluorophenyl)amino]-4-pyrimidinyl}-pyrazolo[1,5-a]pyridin-2-yl)phenyl]-1-methyl-1H-pyrrole-2-carboxamide], the IC50 in assay [1] (Homo sapiens, BT-474, 72 h) is 100 to 1000 nM. In addition, in assay [2] (setting [3]), the “Activity (Method): pIC50 class against ErbB2 or EGFR” value (“Activity (Method): pIC50 class” below) is “+++ (B) (at least one pIC50 measurement of greater than 7 against either ErbB2 or EGFR)”.

Take `O=C(Nc1cccc(-c2nn3ccccc3c2-c2ccnc(Nc3ccc(Nc4ccccc4)cc3)n2)c1)c1c(F)cccc1F` [Example 96]: in assay [1] (Homo sapiens, BT-474, 72 h), the IC50 lay within 100 to 1000 nM. Moreover, in assay [2] (setting [4]), the “Activity (Method): pIC50 class” value is listed as “++ (A) (at least one pIC50 measurement greater than 6 against either ErbB2 or EGFR but no measurement greater than pIC50 of 7)”.

Take `O=C(Nc1cccc(-c2nn3ccccc3c2-c2ccnc(Nc3ccon3)n2)c1)c1c(F)cccc1F` [Example 85, 2,6-Difluoro-N-(3-{3-[2-(3-isoxazolylamino)-4-pyrimidinyl]pyrazolo[1,5-a]pyridin-2-yl}phenyl)benzamide]: in assay [1] (Homo sapiens, BT-474, 72 h), the IC50 was in the range of 100 to 1000 nM. The “Activity (Method): pIC50 class” value in assay [2] (setting [4]) is “+++ (A) (at least one pIC50 measurement of greater than 7 against either ErbB2 or EGFR)”.

As for `Cc1cccc(C(=O)Nc2cccc(-c3nn4ccccc4c3-c3ccnc(Nc4cccc(F)c4)n3)c2)c1` [Example 18, N-(3-{3-[2-(3-Fluoro-phenylamino)-pyrimidin-4-yl]-pyrazolo[1,5-a]pyridin-2-yl}-phenyl)-3-methyl-benzamide], the IC50 in assay [1] (Homo sapiens, BT-474, 72 h) is 100 to 1000 nM. In addition, the “Activity (Method): pIC50 class” value in assay [2] (setting [3]) is recorded as “++ (B) (at least one pIC50 measurement greater than 6 against either ErbB2 or EGFR but no measurement greater than pIC50 of 7)”.

Turning to `O=C(Nc1cccc(-c2nn3c(C(F)(F)F)cccc3c2-c2ccnc(Nc3cccc(F)c3)n2)c1)c1c(F)cccc1F` [Example 153, N-[3-(3-{2-[3-Fluorophenylamino]-4-pyrimidinyl}-7-trifluoropyrazolo[1,5-b]pyridin-2-yl)phenyl]-2,6-difluorobenzamide], in assay [1] (Homo sapiens, BT-474, 72 h), the IC50 is 100 to 1000 nM. Moreover, in assay [2] (setting [3]), the “Activity (Method): pIC50 class” value is “+++ (B) (at least one pIC50 measurement of greater than 7 against either ErbB2 or EGFR)”.

Take `COc1cccc(C(=S)Nc2cccc(-c3nn4ccccc4c3-c3ccnc(Nc4ccc5c(c4)OCCO5)n3)c2)c1` [Example 9, N-(3-{3-[2-(2,3-Dihydro-benzo[1,4-]dioxin-6-ylamino)-pyrimidin-4-yl]-pyrazolo[1,5-a]pyridin-2-yl}-phenyl)-3-methoxy-thiobenzamide]: in assay [1] (Homo sapiens, BT-474, 72 h), the IC50 is 100 to 1000 nM. In addition, in assay [2] (setting [4]), the “Activity (Method): pIC50 class” value was “++ (A) (at least one pIC50 measurement greater than 6 against either ErbB2 or EGFR but no measurement greater than pIC50 of 7)”.

As for `Cn1cccc1C(=O)Nc1cccc(-c2nn3ccccc3c2-c2ccnc(Nc3ccc4c(c3)OCCO4)n2)c1` [Example 3, 1-Methyl-1H-pyrrole-2-carboxylic acid (3-{3-[2-(2,3-dihydro-benzo[1,4]dioxin-6-ylamino)-pyrimidin-4-yl]-pyrazolo[1,5-a]pyridin-2-yl}-phenyl)-amide], the IC50 in assay [1] (Homo sapiens, BT-474, 72 h) is 100 to 1000 nM. Moreover, the “Activity (Method): pIC50 class” value in assay [2] (setting [4]) is on record as “+++ (A) (at least one pIC50 measurement of greater than 7 against either ErbB2 or EGFR)”.

As to `COc1ccc(Nc2nccc(-c3c(-c4cccc(NC(=O)c5c(F)cccc5F)c4)nn4c(C(F)(F)F)cccc34)n2)cc1F` [Example 154, N-[3-(3-[2-{3-fluoro4-methoxyphenylamino]-4-pyrimidinyl}-7-trifluoropyrazolo[1,5-b]pyridin-2-yl)phenyl]-2,6-difluorobenzamide], the IC50 in assay [1] (Homo sapiens, BT-474, 72 h) lay in the range of 100 to 1000 nM. Moreover, in assay [2] (setting [4]), the “Activity (Method): pIC50 class” value was “++ (A) (at least one pIC50 measurement greater than 6 against either ErbB2 or EGFR but no measurement greater than pIC50 of 7)”.

Consider `COc1cc(Nc2nccc(-c3c(-c4cccc(NC(=O)c5c(F)cccc5F)c4)nn4c(C(F)(F)F)cccc34)n2)cc(OC)c1OC` [Example 151, N-[3-(3-{2-[(3,4,5-Trimethoxyphenyl)amino]-4-pyrimidinyl}-7-trifluoropyrazolo[1,5-b]pyridin-2-yl)phenyl]-2,6-difluorobenzamide], for which the IC50 in assay [1] (Homo sapiens, BT-474, 72 h) was in the range of 100 to 1000 nM. Besides, the “Activity (Method): pIC50 class” value in assay [2] (setting [4]) is on record as “++ (A) (at least one pIC50 measurement greater than 6 against either ErbB2 or EGFR but no measurement greater than pIC50 of 7)”.

In the case of `O=C(Nc1cccc(-c2nn3ccccc3c2-c2ccnc(Nc3cccc(F)c3)n2)c1)c1ccccc1` [Example 146], the IC50 in assay [1] (Homo sapiens, BT-474, 72 h) was 100 to 1000 nM. Also, the “Activity (Method): pIC50 class” value in assay [2] (setting [3]) is on record as “+++ (B) (at least one pIC50 measurement of greater than 7 against either ErbB2 or EGFR)”.

Regarding `CN1CCc2ccc(Nc3nccc(-c4c(-c5cccc(NC(=O)c6ccccc6)c5)nn5ccccc45)n3)cc2C1` [Example 63, N-[3-(3-{2-[(2-methyl-1,2,3,4-tetrahydro-7-isoquinolinyl)amino]-4-pyrimidinyl}pyrazolo[1,5-a]pyridin-2-yl)phenyl]benzamide], the IC50 in assay [1] (Homo sapiens, BT-474, 72 h) was below 100 nM. Further, the “Activity (Method): pIC50 class” value in assay [2] (setting [3]) was “+++ (B) (at least one pIC50 measurement of greater than 7 against either ErbB2 or EGFR)”.

Take `O=C(Nc1cccc(-c2nn3ccccc3c2-c2ccnc(Nc3cccc(F)c3)n2)c1)c1cccc(F)c1F` [Example 14, 2,3-Difluoro-N-(3-{3-[2-(3-fluoro-phenylamino)-pyrimidin-4-yl]-pyrazolo[1,5-a]pyridin-2-yl}-phenyl)-benzamide]: the IC50 in assay [1] (Homo sapiens, BT-474, 72 h) was below 100 nM. For the same compound, the “Activity (Method): pIC50 class” value in assay [2] (setting [3]) was “+++ (B) (at least one pIC50 measurement of greater than 7 against either ErbB2 or EGFR)”.

In the case of `O=C(Nc1cccc(-c2nn3ccccc3c2-c2ccnc(Nc3cccc(F)c3)n2)c1)c1c(F)cccc1Cl` [Example 37, 2-Chloro-6-fluoro-N-[3-(3-{2-[(3-fluorophenyl)amino]-4-pyrimidinyl}pyrazolo[1,5-a]pyridin-2-yl)phenyl]benzamide], the IC50 in assay [1] (Homo sapiens, BT-474, 72 h) is below 100 nM. In addition, the “Activity (Method): pIC50 class” value in assay [2] (setting [3]) is “+++ (B) (at least one pIC50 measurement of greater than 7 against either ErbB2 or EGFR)”.

Regarding `O=C(Nc1cccc(-c2nn3ccccc3c2-c2ccnc(Nc3cccc(F)c3)n2)c1)c1cccc(F)c1` [Example 17, 3-Fluoro-N-(3-{3-[2-(3-fluoro-phenylamino)-pyrimidin-4-yl]-pyrazolo[1,5-a]pyridin-2-yl}-phenyl)-benzamide], the IC50 in assay [1] (Homo sapiens, BT-474, 72 h) is 100 to 1000 nM. Further, the “Activity (Method): pIC50 class” value in assay [2] (setting [3]) was “+++ (B) (at least one pIC50 measurement of greater than 7 against either ErbB2 or EGFR)”.

Take `NS(=O)(=O)c1ccc(Nc2nccc(-c3c(-c4cccc(NC(=O)c5c(F)cccc5F)c4)nn4ccccc34)n2)cc1` [Example 32, N-{3-[3-(2-{[4-(aminosulfonyl)phenyl]amino}-4-pyrimidinyl)pyrazolo[1,5-a]pyridin-2-yl]phenyl}-2,6-difluorobenzamide]: in assay [1] (Homo sapiens, BT-474, 72 h), the IC50 is below 100 nM. In assay [2] (setting [3]), the “Activity (Method): pIC50 class” value is recorded as “+++ (B) (at least one pIC50 measurement of greater than 7 against either ErbB2 or EGFR)”.

For `O=C(Nc1cccc(-c2nn3ccccc3c2-c2ccnc(Nc3cccc(F)c3)n2)c1)c1ccccc1C(F)(F)F` [Example 16, N-(3-{3-[2-(3-Fluoro-phenylamino)-pyrimidin-4-yl]-pyrazolo[1,5-a]pyridin-2-yl}-phenyl)-2-trifluoromethyl-benzamide], in assay [1] (Homo sapiens, BT-474, 72 h), the IC50 was below 100 nM. For the same compound, the “Activity (Method): pIC50 class” value in assay [2] (setting [3]) was “+++ (B) (at least one pIC50 measurement of greater than 7 against either ErbB2 or EGFR)”.

Consider `O=C(Nc1cccc(-c2nn3ccccc3c2-c2ccnc(Nc3cccc(C(F)(F)F)c3)n2)c1)c1c(F)cccc1F` [Example 33, 2,6-Difluoro-N-{3-[3-(2-{[3-(trifluoromethyl)phenyl]-amino}-4-pyrimidinyl)pyrazolo[1,5-a]pyridin-2-yl]phenyl}benzamide], for which the IC50 in assay [1] (Homo sapiens, BT-474, 72 h) is 100 to 1000 nM. Also, the “Activity (Method): pIC50 class” value in assay [2] (setting [4]) is reported as “+++ (A) (at least one pIC50 measurement of greater than 7 against either ErbB2 or EGFR)”.

Consider `Nc1ccc(C(=O)Nc2cccc(-c3nn4ccccc4c3-c3ccnc(Nc4ccccc4)n3)c2)cc1` [Example 144, 4-Amino-N-(3-{3-[2-(phenylamino)-4-pyrimidinyl]pyrazolo[1,5-a]pyridin-2-yl}phenyl)benzamide], for which the IC50 in assay [1] (Homo sapiens, BT-474, 72 h) lay in the range of 100 to 1000 nM. The “Activity (Method): pIC50 class” value in assay [2] (setting [4]) is given as “+++ (A) (at least one pIC50 measurement of greater than 7 against either ErbB2 or EGFR)”.

For `S=C(Nc1cccc(-c2nn3ccccc3c2-c2ccnc(Nc3ccc4c(c3)OCCO4)n2)c1)c1ccccc1` [Example 7, N-(3-{3-[2-(2,3-Dihydro-benzo[1,4]dioxin-6-ylamino)-pyrimidin-4-yl]-pyrazolo[1,5-a]pyridin-2-yl}-phenyl)-thiobenzamide], the IC50 in assay [1] (Homo sapiens, BT-474, 72 h) was in the range of 100 to 1000 nM. Also, the “Activity (Method): pIC50 class” value in assay [2] (setting [4]) was “++ (A) (at least one pIC50 measurement greater than 6 against either ErbB2 or EGFR but no measurement greater than pIC50 of 7)”.

On to “N-[3-(3-{2-[4-(4-Cyanophenyl)phenylamino]-4-pyrimidinyl}-7-trifluoropyrazolo[1,5-b]pyridin-2-yl)phenyl]-2,6-difluorobenzamide [Example 93]”, for which the IC50 in assay [1] fell in the range of 100 to 1000 nM. The “Activity (Method): pIC50 class” value in assay [2] (setting [4]) is “++ (A) (at least one pIC50 measurement greater than 6 against either ErbB2 or EGFR but no measurement greater than pIC50 of 7)”.
